From the supplement of paper PMC8149375
One block for each molecule: values may come before it.

Experiments:
Details in all cases: treatment: drug + dasatinib (fixed dose, not stated); 5 days
SN12C [1] = assay: minimum viability across doses, drug + dasatinib, relative to DMSO (fraction); higher = less growth inhibition
Experimental: (§1)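 Primary HTS combination arm: 8 RCC cell lines treated with 8 doses (up to 10 uM) of each library drug plus a fixed dose of dasatinib (dose not stated) for 5 days; viability read by CellTiter-Glo and normalised to DMSO. GI50 was fitted with XLfit, AUC is the area under the dose-response curve, and minimum viability is the lowest fraction of DMSO viability across doses.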

ACHN [2] = assay: as above
Experimental: as §1

786-O [3] = assay: as above
Experimental: as §1

TK-10 [4] = assay: as above
Experimental: as §1

CAKI-1 [5] = assay: as above
Experimental: as §1

UO-31 [6] = assay: as above
Experimental: as §1

769-P [7] = assay: as above
Experimental: as §1

A498 [8] = assay: as above
Experimental: as §1

SN12C [9] = assay: GI50 of drug in presence of dasatinib; higher = less potent
Experimental: as §1

ACHN [10] = assay: as above
Experimental: as §1

786-O [11] = assay: as above
Experimental: as §1

TK-10 [12] = assay: as above
Experimental: as §1

CAKI-1 [13] = assay: as above
Experimental: as §1

UO-31 [14] = assay: as above
Experimental: as §1

769-P [15] = assay: as above
Experimental: as §1

A498 [16] = assay: as above
Experimental: as §1

SN12C [17] = assay: AUC of dose-response viability curve, drug + dasatinib, normalised to DMSO (arbitrary (AUC of normalised viability)); higher = less growth inhibition
Experimental: as §1

ACHN [18] = assay: as above
Experimental: as §1

786-O [19] = assay: as above
Experimental: as §1

TK-10 [20] = assay: as above
Experimental: as §1

CAKI-1 [21] = assay: as above
Experimental: as §1

UO-31 [22] = assay: as above
Experimental: as §1

769-P [23] = assay: as above
Experimental: as §1

A498 [24] = assay: as above
Experimental: as §1

SMILES: CC(C)(C)c1cnc(CSc2cnc(NC(=O)C3CCNCC3)s2)o1 + Cc1nc(Nc2ncc(C(=O)Nc3c(C)cccc3Cl)s2)cc(N2CCN(CCO)CC2)n1 [dasatinib]
minimum viability across doses (SN12C [1]): 0.0108
minimum viability across doses (ACHN [2]): 0.00387
minimum viability across doses (786-O [3]): 0.00565
minimum viability across doses (TK-10 [4]): 0.189
minimum viability across doses (CAKI-1 [5]): 0.034
minimum viability across doses (UO-31 [6]): 0.013
minimum viability across doses (769-P [7]): 0.0223
minimum viability across doses (A498 [8]): 0.00993
GI50 of drug (SN12C [9]): 134 nM
GI50 of drug (ACHN [10]): 157 nM
GI50 of drug (786-O [11]): 55.8 nM
GI50 of drug (TK-10 [12]): 476 nM
GI50 of drug (CAKI-1 [13]): 131 nM
GI50 of drug (UO-31 [14]): 429 nM
GI50 of drug (769-P [15]): 1190 nM
GI50 of drug (A498 [16]): 129 nM
AUC of dose-response viability curve (SN12C [17]): 1.34
AUC of dose-response viability curve (ACHN [18]): 1.26
AUC of dose-response viability curve (786-O [19]): 1.26
AUC of dose-response viability curve (TK-10 [20]): 2.02
AUC of dose-response viability curve (CAKI-1 [21]): 1.59
AUC of dose-response viability curve (UO-31 [22]): 2.06
AUC of dose-response viability curve (769-P [23]): 2.04
AUC of dose-response viability curve (A498 [24]): 1.6

SMILES: Nc1nc(N)c2nc(-c3cccc(O)c3)cnc2n1 + Cc1nc(Nc2ncc(C(=O)Nc3c(C)cccc3Cl)s2)cc(N2CCN(CCO)CC2)n1 [dasatinib]
minimum viability across doses (SN12C [1]): 0.183
minimum viability across doses (ACHN [2]): 0.16
minimum viability across doses (786-O [3]): 0.0115
minimum viability across doses (TK-10 [4]): 0.269
minimum viability across doses (CAKI-1 [5]): 0.0946
minimum viability across doses (UO-31 [6]): 0.0458
minimum viability across doses (769-P [7]): 0.647
minimum viability across doses (A498 [8]): 0.222
GI50 of drug (SN12C [9]): 1410 nM
GI50 of drug (ACHN [10]): 285 nM
GI50 of drug (786-O [11]): 220 nM
GI50 of drug (TK-10 [12]): 3000 nM
GI50 of drug (CAKI-1 [13]): 1760 nM
GI50 of drug (UO-31 [14]): 2960 nM
GI50 of drug (769-P [15]): > 10000 nM
GI50 of drug (A498 [16]): 4140 nM
AUC of dose-response viability curve (SN12C [17]): 2.15
AUC of dose-response viability curve (ACHN [18]): 1.67
AUC of dose-response viability curve (786-O [19]): 1.84
AUC of dose-response viability curve (TK-10 [20]): 2.4
AUC of dose-response viability curve (CAKI-1 [21]): 2.17
AUC of dose-response viability curve (UO-31 [22]): 3.5
AUC of dose-response viability curve (769-P [23]): 2.54
AUC of dose-response viability curve (A498 [24]): 2.98

SMILES: Oc1ccc(-c2nc(-c3ccc(F)cc3)c(-c3ccncc3)[nH]2)cc1 + Cc1nc(Nc2ncc(C(=O)Nc3c(C)cccc3Cl)s2)cc(N2CCN(CCO)CC2)n1 [dasatinib]
minimum viability across doses (SN12C [1]): 0.652
minimum viability across doses (ACHN [2]): 0.279
minimum viability across doses (786-O [3]): 0.609
minimum viability across doses (TK-10 [4]): 0.634
minimum viability across doses (CAKI-1 [5]): 0.555
minimum viability across doses (UO-31 [6]): 0.768
minimum viability across doses (769-P [7]): 0.56
minimum viability across doses (A498 [8]): 0.909
GI50 of drug (SN12C [9]): > 10000 nM
GI50 of drug (ACHN [10]): 449 nM
GI50 of drug (786-O [11]): > 10000 nM
GI50 of drug (TK-10 [12]): > 10000 nM
GI50 of drug (CAKI-1 [13]): > 10000 nM
GI50 of drug (UO-31 [14]): > 10000 nM
GI50 of drug (769-P [15]): > 10000 nM
GI50 of drug (A498 [16]): > 10000 nM
AUC of dose-response viability curve (SN12C [17]): 2.45
AUC of dose-response viability curve (ACHN [18]): 1.74
AUC of dose-response viability curve (786-O [19]): 2.57
AUC of dose-response viability curve (TK-10 [20]): 2.53
AUC of dose-response viability curve (CAKI-1 [21]): 2.52
AUC of dose-response viability curve (UO-31 [22]): 3.66
AUC of dose-response viability curve (769-P [23]): 2.27
AUC of dose-response viability curve (A498 [24]): 3.53

Continued, in another order:

GI50 of drug (ACHN [10]): 68.7 nM
GI50 of drug (786-O [11]): 419 nM
SMILES: COc1cc(Nc2ncc(F)c(Nc3ccc4c(n3)N(COP(=O)([O-])[O-])C(=O)C(C)(C)O4)n2)cc(OC)c1OC.[Na+].[Na+] + Cc1nc(Nc2ncc(C(=O)Nc3c(C)cccc3Cl)s2)cc(N2CCN(CCO)CC2)n1 [dasatinib]
minimum viability across doses (SN12C [1]): 0.202
minimum viability across doses (ACHN [2]): 0.0433
minimum viability across doses (786-O [3]): 0.245
minimum viability across doses (TK-10 [4]): 0.304
minimum viability across doses (CAKI-1 [5]): 0.00358
minimum viability across doses (UO-31 [6]): 0.0117
minimum viability across doses (769-P [7]): 0.0654
minimum viability across doses (A498 [8]): 0.671
GI50 of drug (SN12C [9]): 793 nM
GI50 of drug (TK-10 [12]): 2070 nM
GI50 of drug (CAKI-1 [13]): 161 nM
GI50 of drug (UO-31 [14]): 1580 nM
GI50 of drug (769-P [15]): 1630 nM
GI50 of drug (A498 [16]): > 10000 nM
AUC of dose-response viability curve (SN12C [17]): 2.03
AUC of dose-response viability curve (ACHN [18]): 1.48
AUC of dose-response viability curve (786-O [19]): 1.78
AUC of dose-response viability curve (TK-10 [20]): 2.17
AUC of dose-response viability curve (CAKI-1 [21]): 1.52
AUC of dose-response viability curve (UO-31 [22]): 2.8
AUC of dose-response viability curve (769-P [23]): 2.15
AUC of dose-response viability curve (A498 [24]): 3.45

GI50 of drug (ACHN [10]): > 10000 nM
GI50 of drug (786-O [11]): > 10000 nM
SMILES: Cc1cccc(-c2nc(C(C)(C)C)[nH]c2-c2ccc3nccnc3c2)n1 + Cc1nc(Nc2ncc(C(=O)Nc3c(C)cccc3Cl)s2)cc(N2CCN(CCO)CC2)n1 [dasatinib]
minimum viability across doses (SN12C [1]): 0.317
minimum viability across doses (ACHN [2]): 0.559
minimum viability across doses (786-O [3]): 0.517
minimum viability across doses (TK-10 [4]): 0.61
minimum viability across doses (CAKI-1 [5]): 0.486
minimum viability across doses (UO-31 [6]): 0.824
minimum viability across doses (769-P [7]): 0.476
minimum viability across doses (A498 [8]): 0.411
GI50 of drug (SN12C [9]): 3770 nM
GI50 of drug (TK-10 [12]): > 10000 nM
GI50 of drug (CAKI-1 [13]): 7370 nM
GI50 of drug (UO-31 [14]): > 10000 nM
GI50 of drug (769-P [15]): 7810 nM
GI50 of drug (A498 [16]): 8410 nM
AUC of dose-response viability curve (SN12C [17]): 2.18
AUC of dose-response viability curve (ACHN [18]): 2.06
AUC of dose-response viability curve (786-O [19]): 2.16
AUC of dose-response viability curve (TK-10 [20]): 2.51
AUC of dose-response viability curve (CAKI-1 [21]): 2.29
AUC of dose-response viability curve (UO-31 [22]): 4.8
AUC of dose-response viability curve (769-P [23]): 2.34
AUC of dose-response viability curve (A498 [24]): 3.7

GI50 of drug (ACHN [10]): 22 nM
GI50 of drug (786-O [11]): 3950 nM
SMILES: Cc1[nH]c(/C=C2/C(=O)Nc3ccc(S(=O)(=O)N(C)c4cccc(Cl)c4)cc32)c(C)c1C(=O)N1CCN(C)CC1 + Cc1nc(Nc2ncc(C(=O)Nc3c(C)cccc3Cl)s2)cc(N2CCN(CCO)CC2)n1 [dasatinib]
minimum viability across doses (SN12C [1]): 0.443
minimum viability across doses (ACHN [2]): 0.209
minimum viability across doses (786-O [3]): 0.279
minimum viability across doses (TK-10 [4]): 0.719
minimum viability across doses (CAKI-1 [5]): 0.173
minimum viability across doses (UO-31 [6]): 0.448
minimum viability across doses (769-P [7]): 0.366
minimum viability across doses (A498 [8]): 0.605
GI50 of drug (SN12C [9]): 6070 nM
GI50 of drug (TK-10 [12]): > 10000 nM
GI50 of drug (CAKI-1 [13]): 3070 nM
GI50 of drug (UO-31 [14]): 9290 nM
GI50 of drug (769-P [15]): 5760 nM
GI50 of drug (A498 [16]): > 10000 nM
AUC of dose-response viability curve (SN12C [17]): 2.43
AUC of dose-response viability curve (ACHN [18]): 1.62
AUC of dose-response viability curve (786-O [19]): 2.29
AUC of dose-response viability curve (TK-10 [20]): 2.82
AUC of dose-response viability curve (CAKI-1 [21]): 2.23
AUC of dose-response viability curve (UO-31 [22]): 3.25
AUC of dose-response viability curve (769-P [23]): 2.35
AUC of dose-response viability curve (A498 [24]): 3.28

GI50 of drug (ACHN [10]): 22 nM
GI50 of drug (786-O [11]): 35.5 nM
SMILES: CNC(=O)c1nn(C)c2c1C(C)(C)Cc1cnc(Nc3ccc(N4CCN(C)CC4)cc3)nc1-2 + Cc1nc(Nc2ncc(C(=O)Nc3c(C)cccc3Cl)s2)cc(N2CCN(CCO)CC2)n1 [dasatinib]
minimum viability across doses (SN12C [1]): 0.0108
minimum viability across doses (ACHN [2]): 0.0123
minimum viability across doses (786-O [3]): 0.00492
minimum viability across doses (TK-10 [4]): 0.189
minimum viability across doses (CAKI-1 [5]): 0.0344
minimum viability across doses (UO-31 [6]): 0.0113
minimum viability across doses (769-P [7]): 0.0274
minimum viability across doses (A498 [8]): 0.0243
GI50 of drug (SN12C [9]): 261 nM
GI50 of drug (TK-10 [12]): 137 nM
GI50 of drug (CAKI-1 [13]): 38.8 nM
GI50 of drug (UO-31 [14]): 279 nM
GI50 of drug (769-P [15]): 245 nM
GI50 of drug (A498 [16]): 3470 nM
AUC of dose-response viability curve (SN12C [17]): 1.71
AUC of dose-response viability curve (ACHN [18]): 1.03
AUC of dose-response viability curve (786-O [19]): 1.35
AUC of dose-response viability curve (TK-10 [20]): 1.63
AUC of dose-response viability curve (CAKI-1 [21]): 1.11
AUC of dose-response viability curve (UO-31 [22]): 2.02
AUC of dose-response viability curve (769-P [23]): 1.77
AUC of dose-response viability curve (A498 [24]): 3.23
